Data: US8992985B2, “Core-shell magnetic particles and related methods” (priority 2010, dated 2015)
Read-outs that look alike come from different tables or passages of the source.

What was measured:
[1] = system: Escherichia coli ATCC 11229; experiment: Broth microdilution MIC assay; assay type: cell-based; settings: E. coli (−); LB broth, 37° C
Excerpt: (§1) The following microorganisms were used (American Type Culture Collection (ATCC), Manassas, Vir., or La Colección Española de Cultivos Tipo (CECT), Valencia, Spain): Gram-positive bacteria Staphylococcus aureus ATCC 25923 and ATCC 6538, Staphylococcus epidermidis CECT 4184, Lactococcus lactis ATCC 7963, Streptococcus phocae ATCC51973, Lactococcus garvieae ATCC2155, Gram-negative bacteria Pseudomonas aeruginosa CECT 110 and ATCC 15692, Escherichia coli ATCC 11229, and Salmonella enterica ATCC 13311. The bacteria were grown at 37° C. in Luria-Bertani (LB) broth (Sigma-Aldrich Chemical Co.) (pH 7.3), which was also used for dilutions. The […] inhibitory concentration (MIC) values of PHMBG and the particles were determined in vitro using a broth microdilution assay. The polymer or nanoparticles were dissolved or dispersed, respectively, with brief sonication; into small stock samples of sterile deionized water (10 mL, 3 mg/mL). Serial dilutions between 5 and 300 mg/L final concentration in the liquid medium were dispensed into sterile 96-well polystyrene culture Corning® Costar® cell plates (Sigma-Aldrich Chemical Co.). The diluted samples were inoculated with a suspension of the test bacterium on the liquid medium to a final concentration of approximately 10^4 cfu/mL. The MIC was defined as the lowest concentration of PHMBG polymer, PHMBG-PEI-M or PHMBG-M/SiO2 particles that inhibited bacterial growth after […] at 37° C. Measurements were conducted in triplicate. The precision of the MIC values was limited by the dilution factor and was estimated to be ±5 mg/L, Negative control experiments were conducted with the dilutions without bactericidal additives and no reduction in bacterial counts after 24 h was observed.
(§2) For testing the antiseptic properties of the core-shell magnetic nanoparticles of the invention, five Gram-positive and three Gram-negative bacteria were chosen to represent a wide range of waterborne microorganisms, all of which are pathogenic with the exception of L. lactis, which is extensively used in buttermilk and cheese production. Gram-positive S. aureus and S. epidermidis are well-known human pathogens; S. phocae is a fish and seal pathogen; and L. garvieae causes septicemic infections of fish and is the main risk factor for the Mediterranean European trout industry. […] Both PHMBG-M/SiO2 (t) and PHMBG-M/SiO2 (s) particle species were tested, as well as PHMBG solutions and PHMBG-PEI-M particle suspensions.

[2] = system: Lactococcus garvieae ATCC2155; experiment: Broth microdilution MIC assay; assay type: cell-based; settings: L. garvieae (+); LB broth, 37° C
Excerpt: as §1, §2

[3] = system: Lactococcus lactis ATCC 7963; experiment: Broth microdilution MIC assay; assay type: cell-based; settings: L. lactis (+); LB broth, 37° C
Excerpt: as §1, §2

Pseudomonas aeruginosa = experiment: Broth microdilution MIC assay; assay type: cell-based; settings: P. aeruginosa (−); LB broth, 37° C
Excerpt: as §1, §2

[4] = system: Salmonella enterica ATCC 13311; experiment: Broth microdilution MIC assay; assay type: cell-based; settings: S. enterica (−); LB broth, 37° C
Excerpt: as §1, §2

Staphylococcus aureus = experiment: Broth microdilution MIC assay; assay type: cell-based; settings: S. aureus (+); LB broth, 37° C
Excerpt: as §1, §2

[5] = system: Staphylococcus epidermidis CECT 4184; experiment: Broth microdilution MIC assay; assay type: cell-based; settings: S. epidermidis (+); LB broth, 37° C
Excerpt: as §1, §2

[6] = system: Streptococcus phocae ATCC51973; experiment: Broth microdilution MIC assay; assay type: cell-based; settings: S. phocae (+); LB broth, 37° C
Excerpt: as §1, §2

[7] = in aquatic organisms; cited from earlier work
[8] = in human blood; cited from earlier work

Row | Compound | Minimum inhibitory concentrations (MIC) [1] | Minimum inhibitory concentrations (MIC) [2] | Minimum inhibitory concentrations (MIC) [3] | Minimum inhibitory concentrations (MIC) (Pseudomonas aeruginosa) | Minimum inhibitory concentrations (MIC) [4] | Minimum inhibitory concentrations (MIC) (Staphylococcus aureus) | Minimum inhibitory concentrations (MIC) [5] | Minimum inhibitory concentrations (MIC) [6] | half-life [7] | half-life [8]
1 | Poly(hexamethylene biguanide) [PHMBG] | 5 µg/mL | 40 µg/mL | 20 µg/mL | 30 µg/mL | 110 µg/mL | 5 µg/mL | 0.5 µg/mL | 1.6 µg/mL | – | –
2 | [CH3][Hg][Cl] [methylmercury] | – | – | – | – | – | – | – | – | about 72 days | about 50 days
